Reference: patent publication USRE48461E1, “Modulation of androgen receptor expression” (Ionis Pharmaceuticals, Inc., priority 2012, dated 2021)
pIC50: −log10 of the molar value. Oligonucleotides are written 5' to 3', each unit as a sugar letter and its base; * is a phosphorothioate linkage, no mark a phosphodiester; rarer units and linkages stand in square brackets, end groups in braces. Plain capitals give the bases only. k = constrained ethyl (cEt); [5mC] = 5-methylcytosine; d = 2'-deoxy (DNA)

Legend:
AR mRNA [1] = assay: Dose-dependent antisense inhibition of human AR in HuVEC cells (electroporation, qRT-PCR RTS3559, IC50); format: cell-based; conditions: HuVEC, ~16 h
Description: (§1) After a treatment period of approximately 16 hours, RNA was isolated from the cells and AR mRNA levels were measured by quantitative real-time PCR. Human AR primer probe set RTS3559 was used to measure mRNA levels. AR mRNA levels were adjusted according to total RNA content, as measured by RIBOGREEN®. […] The antisense oligonucleotides were tested in a series of experiments that had similar culture conditions.
as §1, §1, §1, §1
(§2) After a treatment period of approximately 16 hours, RNA was isolated from the cells and AR mRNA levels were measured by quantitative real-time PCR. Human AR primer probe set RTS3559 was used to measure mRNA levels. AR mRNA levels were adjusted according to total RNA content, as measured by RIBOGREEN®.
as §2

AR mRNA [2] = assay: Antisense inhibition of human AR in HuVEC cells, single concentration (electroporation, qRT-PCR RTS3559); format: cell-based; conditions: 500 nM ASO, electroporation, ~24 h
Description: Antisense oligonucleotides were designed targeting an AR nucleic acid and were tested for their effects on AR mRNA in vitro. The antisense oligonucleotides were tested in a series of experiments that had similar culture conditions. […] Human primer probe set RTS3559 (forward sequence [NT], designated herein as SEQ ID NO: 9; reverse sequence [NT], designated herein as SEQ ID NO: 10; probe sequence [NT], designated herein as SEQ ID NO: 11) was used to measure mRNA levels. AR mRNA levels were adjusted according to total RNA content, as measured by RIBOGREEN®. […] A total of 155 oligonucleotides were tested. Additional antisense oligonucleotides were designed targeting an AR nucleic acid and were tested for their effects on AR mRNA in vitro. […] Human primer probe set RTS3559 was used to measure mRNA levels. AR mRNA levels were adjusted according to total RNA content, as measured by RIBOGREEN®. […] A total of 82 oligonucleotides were tested. Additional antisense oligonucleotides were designed targeting an AR nucleic acid and were tested for their effects on AR mRNA in vitro. […] Human primer probe set RTS3559 was used to measure mRNA levels. AR mRNA levels were adjusted according to total RNA content, as measured by RIBOGREEN®. […] A total of 40 oligonucleotides were tested. Additional antisense oligonucleotides were designed targeting an AR nucleic acid and were tested for their effects on AR mRNA in vitro. […] Human primer probe set RTS3559 was used to measure mRNA levels. AR mRNA levels were adjusted according to total RNA content, as measured by RIBOGREEN®. […] A total of 75 oligonucleotides were tested. Additional antisense oligonucleotides were designed targeting an AR nucleic acid and were tested for their effects on AR mRNA in vitro. […] Human primer probe set RTS3559 was used to measure mRNA levels. AR mRNA levels were adjusted according to total RNA content, as measured by RIBOGREEN®. […] A total of 616 oligonucleotides were tested. Additional antisense oligonucleotides were designed targeting an AR nucleic acid and were tested for their effects on AR mRNA in vitro. […] Human primer probe set RTS3559 was used to measure mRNA levels. AR mRNA levels were adjusted according to total RNA content, as measured by RIBOGREEN®. […] A total of 385 oligonucleotides were tested.

| Substance | percent inhibition of AR (AR mRNA [1]; 55.6 nM, Table 3) [%] | percent inhibition of AR (AR mRNA [1]; 166.7 nM, Table 3) [%] | percent inhibition of AR (AR mRNA [1]; 500.0 nM, Table 3) [%] | percent inhibition of AR (AR mRNA [1]; 1500.0 nM, Table 3) [%] | pIC50 (AR mRNA [1]; Table 3) | % inhibition (AR mRNA [2]; Table 1) [%] | percent inhibition of AR (AR mRNA [1]; 55.6 nM, Table 4) [%] | percent inhibition of AR (AR mRNA [1]; 166.7 nM, Table 4) [%] | percent inhibition of AR (AR mRNA [1]; 500.0 nM, Table 4) [%] | percent inhibition of AR (AR mRNA [1]; 1500.0 nM, Table 4) [%] | pIC50 (AR mRNA [1]; Table 4) | % inhibition (AR mRNA [2]; Table 2) [%] |
| --- | --- | --- | --- | --- | --- | --- | --- | --- | --- | --- | --- | --- |
| 549377 (kA*kG*kG*dA*dT*dG*dA*dG*dG*dA*dA*dG*d[5mC]*kG*kG*k[5mC]; antisense) [compound 549377] | 13 | 52 | 72 | 93 | 6.67 | 90 | – | – | – | – | – | – |
| 549379 (kG*k[5mC]*kT*d[5mC]*d[5mC]*d[5mC]*dG*d[5mC]*d[5mC]*dT*d[5mC]*dG*d[5mC]*k[5mC]*kG*k[5mC]; antisense) [compound 549379] | 11 | 51 | 68 | 88 | 6.63 | 86 | – | – | – | – | – | – |
| 549381 (kG*k[5mC]*k[5mC]*dG*d[5mC]*d[5mC]*dA*dG*dG*dG*dT*dA*d[5mC]*k[5mC]*kA*k[5mC]; antisense) [compound 549381] | 14 | 33 | 71 | 91 | 6.58 | 89 | – | – | – | – | – | – |
| 549383 (k[5mC]*k[5mC]*kA*dA*dA*d[5mC]*dG*d[5mC]*dA*dT*dG*dT*d[5mC]*k[5mC]*k[5mC]*k[5mC]; antisense) [compound 549383] | 10 | 34 | 75 | 88 | 6.57 | 88 | – | – | – | – | – | – |
| 549387 (kA*kG*k[5mC]*dT*dT*d[5mC]*dA*dT*d[5mC]*dT*d[5mC]*d[5mC]*dA*k[5mC]*kA*kG; antisense) [compound 549387] | – | – | – | – | – | 84 | 9 | 41 | 68 | 92 | 6.58 | – |
| 549388 (kT*k[5mC]*k[5mC]*d[5mC]*dT*dT*d[5mC]*dA*dG*d[5mC]*dG*dG*d[5mC]*kT*k[5mC]*kT; antisense) [compound 549388] | 15 | 42 | 36 | 86 | 6.37 | 88 | – | – | – | – | – | – |
| 549414 (kG*kT*kT*d[5mC]*dA*dT*dT*d[5mC]*dG*dA*dA*dG*dT*kT*k[5mC]*kA) [compound 549414] | – | – | – | – | – | – | 21 | 35 | 53 | 76 | 6.44 | 81 |
| 549432 (kG*kA*kG*dG*dA*dT*d[5mC]*dA*dT*d[5mC]*dA*d[5mC]*dA*kG*kA*kT) [compound 549432] | – | – | – | – | – | – | 15 | 46 | 80 | 92 | 6.75 | 90 |
